In the supplement of paper PMC10307832:

Tests used:
Experiment in all cases: relative viability (nuclei count vs DMSO), 5 days (fraction); higher = more cells survive
[1] = compound: CNC(=O)c1cc(Oc2ccc(NC(=O)Nc3ccc(Cl)c(C(F)(F)F)c3)cc2)ccn1 [Sorafenib] + COc1cc2c(Oc3ccc(NC(=O)C4(C(=O)Nc5ccc(F)cc5)CC4)cc3F)ccnc2cc1OCCCN1CCOCC1 [Foretinib] (partner 0.25 µM)
How it was run: (§1)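 Cells from lung cancer lines were seeded into 1536-well plates and, one day later, dosed by pin tool. Treatments were either a single drug or a fixed dose of an anchor drug with five library-drug doses (not always all listed) in √10 steps. After 5 days, nuclei were stained in a one-step fixation (final 0.05% Triton X-100, 1% formaldehyde, 1 ug/ml Hoechst) and counted on 4× images, and relative viability is the treated-to-vehicle nuclei ratio, as the median of duplicate plates.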

[2] = compound: CNC(=O)c1cc(Oc2ccc(NC(=O)Nc3ccc(Cl)c(C(F)(F)F)c3)cc2)ccn1 [Sorafenib] + C[C@]1(O)C[C@@H](c2nc(-c3ccc4ccc(-c5ccccc5)nc4c3)c3c(N)nccn32)C1 [Linsitinib] (partner 1 µM)
How it was run: as §1

[3] = compound: CNC(=O)c1cc(Oc2ccc(NC(=O)Nc3ccc(Cl)c(C(F)(F)F)c3)cc2)ccn1 [Sorafenib] + Cc1cc(Nc2cc(N3CCN(C)CC3)nc(Sc3ccc(NC(=O)C4CC4)cc3)n2)n[nH]1 [Tozasertib] (partner 0.1 µM)
How it was run: as §1

[4] = compound: CNC(=O)c1cc(Oc2ccc(NC(=O)Nc3ccc(Cl)c(C(F)(F)F)c3)cc2)ccn1 [Sorafenib] + NC(=O)Nc1cc(-c2cccc(F)c2)sc1C(=O)N[C@H]1CCCNC1 [AZD7762] (partner 0.2 µM)
How it was run: as §1

[5] = compound: CNC(=O)c1cc(Oc2ccc(NC(=O)Nc3ccc(Cl)c(C(F)(F)F)c3)cc2)ccn1 [Sorafenib] + O=C(c1cc(Cc2n[nH]c(=O)c3ccccc23)ccc1F)N1CCN(C(=O)C2CC2)CC1 [Olaparib] (partner 8 µM)
How it was run: as §1

Cell Line	relative viability ([1]; first compound 0.08 µM)	relative viability ([1]; first compound 0.253 µM)	relative viability ([1]; first compound 2.53 µM)	relative viability ([1]; first compound 8 µM)	relative viability ([2]; first compound 0.08 µM)	relative viability ([2]; first compound 0.253 µM)	relative viability ([2]; first compound 2.53 µM)	relative viability ([2]; first compound 8 µM)	relative viability ([3]; first compound 0.08 µM)	relative viability ([3]; first compound 0.253 µM)	relative viability ([3]; first compound 2.53 µM)	relative viability ([3]; first compound 8 µM)	relative viability ([4]; first compound 0.08 µM)	relative viability ([4]; first compound 0.253 µM)	relative viability ([4]; first compound 2.53 µM)	relative viability ([4]; first compound 8 µM)	relative viability ([5]; first compound 0.08 µM)	relative viability ([5]; first compound 0.253 µM)	relative viability ([5]; first compound 2.53 µM)	relative viability ([5]; first compound 8 µM)
LCLC-103H	0.793	0.794	0.813	0.882	1.21	0.981	1.12	1.2	0.489	0.548	0.419	0.569	0.778	0.652	0.769	0.843	0.796	0.734	0.831	0.832
LK-2	1.06	1	0.976	0.747	0.672	0.364	0.451	0.516	0.17	0.226	0.17	0.153	0.394	0.338	0.413	0.134	0.674	0.734	0.575	0.346
LOU-NH91	1.02	0.973	1.08	0.942	1.07	0.973	1.13	0.873	0.69	0.681	0.767	0.647	0.804	0.721	0.876	0.671	0.936	0.975	0.96	0.657
LU99A	0.741	0.758	0.78	0.728	0.533	0.488	0.507	0.496	0.305	0.278	0.247	0.26	0.369	0.307	0.321	0.155	0.244	0.234	0.244	0.237
LXF-289	–	0.992	1.06	0.943	0.977	0.986	1.04	0.894	0.178	0.184	0.177	0.174	1.12	1.11	1.17	1.05	1.03	1.04	1.01	0.96
NCI-H23	1.03	0.977	0.833	0.871	0.626	0.439	0.553	0.512	0.362	0.286	0.276	0.219	0.193	0.323	0.229	0.159	0.31	0.249	0.343	0.266
NCI-H322M	1.19	0.994	1.14	1.05	0.886	1.05	0.912	0.984	0.512	0.394	0.527	0.475	0.65	0.511	0.533	0.595	0.903	0.66	0.678	0.918
NCI-H358	0.786	0.723	–	0.489	0.763	0.85	0.748	0.255	0.112	0.0906	0.0966	0.073	0.539	–	0.79	0.368	0.551	0.491	0.368	0.375
NCI-H441	1.11	–	0.957	0.782	0.563	0.417	0.355	0.302	0.644	–	0.542	0.386	1.03	0.946	0.841	0.855	0.593	0.5	0.455	0.308
NCI-H460	0.972	0.997	0.972	0.622	0.838	0.771	0.684	0.215	0.514	0.386	0.414	0.0751	0.586	0.444	–	0.414	0.399	0.335	0.345	0.324
NCI-H596	0.73	0.958	0.866	0.66	1.06	0.982	1.07	1.26	1.01	0.907	0.871	0.406	1.21	1	0.94	0.819	0.773	0.73	0.751	0.79
NCI-H647	1.25	1	0.987	0.48	1.16	0.992	0.976	0.243	0.246	0.218	0.165	0.0549	0.415	0.298	0.64	0.35	0.568	0.524	0.356	0.0229
NCI-H650	1.02	0.863	0.942	0.857	0.81	0.664	0.776	0.716	0.718	0.659	0.62	0.592	1.31	0.691	0.96	0.936	0.377	0.312	0.295	0.227
NCI-H727	0.936	1.11	0.909	0.739	0.29	0.226	0.33	0.231	0.643	0.638	0.555	0.487	0.716	0.6	–	0.502	0.826	0.666	0.693	0.659
NCI-H838	1.12	1.04	1.28	0.685	1.1	–	1.24	0.485	0.278	0.261	0.284	0.197	0.971	0.93	–	0.923	0.776	0.744	0.735	0.215
NCI-H1355	1.08	0.971	0.937	–	0.925	0.823	0.785	0.781	0.55	0.592	0.416	0.354	0.805	0.713	0.651	0.546	–	0.753	0.685	0.411

Cell Line	relative viability ([1]; first compound 0.08 µM)	relative viability ([1]; first compound 0.253 µM)	relative viability ([1]; first compound 2.53 µM)	relative viability ([1]; first compound 8 µM)	relative viability ([2]; first compound 0.08 µM)	relative viability ([2]; first compound 0.253 µM)	relative viability ([2]; first compound 2.53 µM)	relative viability ([2]; first compound 8 µM)	relative viability ([3]; first compound 0.08 µM)	relative viability ([3]; first compound 0.253 µM)	relative viability ([3]; first compound 2.53 µM)	relative viability ([3]; first compound 8 µM)	relative viability ([4]; first compound 0.08 µM)	relative viability ([4]; first compound 0.253 µM)	relative viability ([4]; first compound 2.53 µM)	relative viability ([4]; first compound 8 µM)	relative viability ([5]; first compound 0.08 µM)	relative viability ([5]; first compound 0.253 µM)	relative viability ([5]; first compound 2.53 µM)	relative viability ([5]; first compound 8 µM)
NCI-H1395	1.08	0.931	1.04	0.854	1.15	0.901	0.991	1.13	0.748	0.729	0.8	0.634	0.424	–	0.428	0.429	0.517	–	0.515	0.394
NCI-H1437	1.26	1.17	1.13	0.742	0.989	1	0.657	0.244	0.419	0.384	0.416	0.291	1.23	1.05	1.13	0.539	0.633	0.585	0.493	0.254
NCI-H1651	0.923	–	0.787	0.515	1.14	0.885	0.91	0.396	0.833	0.643	0.698	0.445	0.537	0.362	0.399	0.322	0.18	0.174	0.187	0.178
NCI-H1666	0.976	0.93	–	0.889	0.927	0.82	0.656	0.611	0.681	0.641	0.581	0.503	0.865	0.778	0.797	0.719	0.785	0.765	0.721	–
NCI-H1734	1.05	0.769	0.682	0.41	0.967	0.836	0.841	0.742	0.266	0.224	0.249	0.212	0.572	0.497	0.505	–	0.609	0.541	0.563	0.601
NCI-H1755	0.926	0.863	0.921	0.729	1.03	1.02	0.971	0.743	0.498	0.532	0.471	0.456	0.474	0.383	0.504	0.312	0.912	0.797	0.856	0.748
NCI-H1793	0.76	0.853	1.12	0.798	1.18	0.896	1.01	1.21	0.467	0.374	0.242	0.182	0.926	0.306	0.385	0.146	1.05	0.836	0.84	0.661
NCI-H1915	1.08	0.969	1.03	1.09	1.06	0.952	0.949	1.15	0.454	0.409	0.397	0.374	0.722	0.51	0.558	0.669	0.283	0.226	0.266	0.271
NCI-H1944	0.92	0.97	0.946	0.747	1.21	1.24	1.3	1.09	0.281	0.292	0.266	0.206	0.584	0.453	0.679	0.31	0.391	0.379	0.382	0.35
NCI-H1975	–	0.958	0.994	0.649	1.01	1.02	1.08	0.491	0.873	0.704	0.643	0.162	0.807	0.633	0.803	0.809	0.936	0.779	0.669	0.353
NCI-H1993	0.778	0.746	0.86	0.543	0.774	0.675	–	0.819	0.601	0.565	0.584	0.608	0.793	0.763	0.913	0.397	1.12	1.2	1.22	0.751
NCI-H2085	0.948	0.856	0.864	0.874	0.962	0.924	1.07	0.728	0.849	0.833	0.611	–	1.04	0.874	1.03	0.604	0.763	0.851	1.01	0.761
NCI-H2087	1.36	0.977	0.819	0.632	0.756	0.853	0.956	0.275	0.26	0.241	0.212	0.152	1.39	1.08	1.02	0.264	0.717	0.566	0.501	0.116
NCI-H2126	1.26	1.09	1.1	1.2	0.754	0.706	0.745	–	0.93	0.842	0.866	–	1.01	1.01	1.07	0.982	0.935	0.851	0.96	0.913
NCI-H2347	1.41	0.673	0.953	0.775	–	0.921	0.973	0.999	0.646	0.599	0.509	0.426	0.784	0.664	0.636	0.47	0.675	0.502	0.503	0.519
NCI-H2405	1.14	1.04	1.07	0.92	1.1	0.907	0.715	0.502	0.819	0.743	0.751	0.613	0.819	0.597	0.681	0.63	0.891	0.852	0.887	0.807
